Data: US20210038559A1, “CANNABINOIDS AND DERIVATIVES FOR PROMOTING IMMUNOGENICITY OF TUMOR AND INFECTED CELLS” (priority 2018, published 2021)

Test system: MHC-I expression by COLO 205 cells
Test: cells
Type: cell-based, human
Conditions: not given
Method: A panel of synthetic cannabinoids (Cayman Chemical, #9002891) was tested for MHC class I-inducing capability in COLO 205 cells as described above. COLO 205 cells were treated with the compounds at a concentration of 35 μM and evaluated for cell surface MHC class I expression after 48 hours. Cells were harvested, stained with MHC-I mAb W6/32 (Thermo Fisher). MHC-I expression was determined by flow cytometry.

Compound | Induction Fold [Fold]
1-naphthalenyl[1-(4-penten-1-yl)-1H-indol-3-yl]-methanone [Example 73] | 2.68
1-naphthalenyl[5-(1-naphthalenyl)-1-pentyl-1H-pyrrol-3-yl]-methanone [Example 214] | 1.80

Same assay, conditions: Homo sapiens, COLO 205, 48 h, MHC-I expression, COLO 205 cells, compounds at 35 μM, 48 hours, flow cytometry (W6/32); read-out: Induction Fold

Compound | fold induction at 35 µM
COc1cccc2c(C(=O)N3CCN(C)C(C)C3)cn(CC3CCCCC3)c12 (racemic) [Example 277, [1-(cyclohexylmethyl)-7-methoxy-1H-indol-3-yl](3,4-dimethyl-1-piperazinyl)-methanone] | 1.5
CCCCCC(C)(C)c1ccc([C@H]2CCC[C@@H](O)C2)c(O)c1 (relative stereo) [Example 209, cis-5-(1,1-dimethylhexyl)-2-(3-hydroxycyclohexyl)-phenol] | 1.84
CCCCCCCC(C)(C)c1ccc([C@@H]2CCC[C@H](O)C2)c(O)c1 (relative stereo) [Example 241, rel-5-(1,1-dimethyloctyl)-2-[(1R,3S)-3-hydroxycyclohexyl]-phenol] | 1.68
CCCCCCC(C)(C)c1ccc([C@@H]2CCC[C@H](O)C2)c(O)c1 (relative stereo) [Example 353, rel-5-(1,1-dimethylheptyl)-2-[(1R,3S)-3-hydroxycyclohexyl]-phenol] | 1.06
CCCCCCCCC(C)(C)c1ccc([C@H]2CCC[C@@H](O)C2)c(O)c1 (relative stereo) [Example 374, cis-5-(1,1-dimethylnonyl)-2-(3-hydroxycyclohexyl)-phenol] | 0.49
CCCCCCC(C)(C)c1ccc([C@@H]2C[C@@H](O)CC[C@H]2CCCO)c(O)c1 (relative stereo) [Example 375, rel-2-((1R,2R,5S)-5-hydroxy-2-(3-hydroxypropyl)cyclohexyl)-5-(2-methyloctan-2-yl)phenol] | 0.33
CCCCCn1nc(C(=O)N[C@@H](CCCC)C(N)=O)c2ccccc21 (single isomer, unassigned) [Example 11] | 4.56
CCCCCn1nc(C(=O)N[C@H](C(N)=O)[C@@H](C)CC)c2ccccc21 (single isomer, unassigned) [Example 26] | 3.49
CCC(C(N)=O)N(C)C(=O)c1nn(Cc2ccc(F)cc2)c2ccccc12 (single isomer, unassigned) [Example 135, N-(1-amino-1-oxobutan-2-yl)-1-(4-fluorobenzyl)-N-methyl-1H-indazole-3-carboxamide] | 2.23
CCCCCn1nc(C(=O)NC(C)(C(N)=O)C(C)C)c2ccccc21 (single isomer, unassigned) [Example 151, N-(1-amino-2,3-dimethyl-1-oxobutan-2-yl)-1-pentyl-1H-indazole-3-carboxamide] | 2.13
CCCC(NC(=O)c1nn(Cc2ccc(F)cc2)c2ccccc12)C(N)=O (single isomer, unassigned) [Example 169, N-(1-amino-1-oxopentan-2-yl)-1-(4-fluorobenzyl)-1H-indazole-3-carboxamide] | 2.01
CCC(C)(NC(=O)c1nn(Cc2ccc(F)cc2)c2ccccc12)C(N)=O (single isomer, unassigned) [Example 287, N-(1-amino-2-methyl-1-oxobutan-2-yl)-1-(4-fluorobenzyl)-1H-indazole-3-carboxamide] | 1.45
CC[C@H](C)[C@H](NC(=O)c1nn(CCCCCF)c2ccccc12)C(N)=O (single isomer, unassigned) [Example 298] | 1.42
CC(C)(NC(=O)c1c2ccccc2nn1CCCCC#N)c1ccccc1 (single isomer, unassigned) [Example 299, 2-(4-cyanobutyl)-N-(2-phenylpropan-2-yl)-2H-indazole-3-carboxamide] | 1.42
O=C(NC1C2CC3CC(C2)CC1C3)c1nn(CC2CCOCC2)c2ccccc12 (single isomer, unassigned) [Example 352, N-(adamantan-2-yl)-1-((tetrahydro-2H-pyran-4-yl)methyl)-1H-indazole-3-carboxamide] | 1.07
O=C(NC12CC3CC(CC(C3)C1)C2)c1nn(CC2CCOCC2)c2ccccc12 (single isomer, unassigned) [Example 361, 1-[(tetrahydro-2H-pyran-4-yl)methyl]-N-tricyclo[3.3.1.1^3,7]dec-1-yl-1H-indazole-3-carboxamide] | 0.95
CN1CCCCC(Cn2cc(C(=O)c3cccc4ccccc34)c3ccccc32)C1 (centres unmarked) [Example 6, (1-((1-methylazepan-3-yl)methyl)-1H-indol-3-yl)(naphthalen-1-yl)methanone] | 5.6
CN1CCCCC1Cn1cc(C(=O)c2cc([N+](=O)[O-])ccc2I)c2ccccc21 (centres unmarked) [Example 7, (2-iodo-5-nitrophenyl)-(1-(1-methylpiperidin-2-ylmethyl)-1H-indol-3-yl)methanone] | 5.59
O=C(Oc1ccnc2ccccc12)c1cn(CC2CCCCC2)c2ccccc12 [Example 9, quinolin-4-yl 1-(cyclohexylmethyl)-1H-indole-3-carboxylate] | 5.41
CCCCCn1cc(C(=O)Oc2ccnc3ccccc23)c2ccccc21 [Example 10, quinolin-4-yl 1-pentyl-1H-indole-3-carboxylate] | 5.02
O=C(Oc1ccc2cccnc2c1)c1cn(CCCCCF)c2ccccc12 [Example 12, quinolin-7-yl 1-(5-fluoropentyl)-1H-indole-3-carboxylate] | 4.34
O=C(c1ccc2ccccc2c1)c1cn(CCN2CCOCC2)c2ccccc12 [Example 13, [1-[2-(4-morpholinyl)ethyl]-1H-indol-3-yl]-2-naphthalenyl-methanone] | 4.3
COC(=O)[C@@H](NC(=O)c1nn(CC2CCCCC2)c2ccccc12)C(C)C [Example 14, N-[[1-(cyclohexylmethyl)-1H-indazol-3-yl]carbonyl]-L-valine, methyl ester] | 4.2
COC(=O)[C@@H](NC(=O)c1nn(Cc2ccc(F)cc2)c2ccccc12)C(C)C [Example 15, N-[[1-[(4-fluorophenyl)methyl]-1H-indazol-3-yl]carbonyl]-L-valine, methyl ester] | 4.2
O=C(Oc1cccc2ccncc12)c1cn(CCCCCF)c2ccccc12 [Example 16, isoquinolin-8-yl 1-(5-fluoropentyl)-1H-indole-3-carboxylate] | 4.19
CCCCCn1cc(C(=O)Oc2cccc3ccncc23)c2ccccc21 [Example 17, isoquinolin-8-yl 1-pentyl-1H-indole-3-carboxylate] | 4.11
CCCCCn1cc(C(=O)Oc2ccc3cccnc3c2)c2ccccc21 [Example 18, quinolin-7-yl 1-pentyl-1H-indole-3-carboxylate] | 4.08
O=C(Oc1cncc2ccccc12)c1cn(CCCCCF)c2ccccc12 [Example 19, isoquinolin-4-yl 1-(5-fluoropentyl)-1H-indole-3-carboxylate] | 4.06

Same assay, conditions: MHC-I expression, COLO 205 cells, compounds at 35 μM, 48 hours, flow cytometry (W6/32)

Compound | Induction Fold [Fold]
CCCCCCCC(C)(C)c1ccc([C@H]2CCC[C@H](O)C2)c(O)c1 (relative stereo) [Example 301, rel-2-[(1S,3S)-3-hydroxycyclohexyl)]-5-(2-methylnonan-2-yl)phenol] | 1.41
CCOC(=O)[C@@H](NC(=O)c1nn(Cc2ccc(F)cc2)c2ccccc12)C(C)C [Example 8, ethyl (1-(4-fluorobenzyl)-1H-indazole-3-carbonyl)-1-valinate] | 5.50
